Experimental data published in US8618284B2 (Wyeth LLC, priority 2008, dated 2013).
Values belong to the compound of their own block, whether it stands above or below them.

How the values were obtained:
[1] = upon contact with a solvent or solvent mixture (e.g., ethyl acetate and ethanol); cited from earlier work
[2] = aqueous and organic solvent systems, Form A compared with Form B; cited from earlier work
[3] = in some drug formulations; cited from earlier work
[4] = Granulation effect on the polymorphic transformation of Form A; assay type: physicochemical; settings: dry industrial batch of Form A; for % Form B after granulation: after industrial granulation; for % Form B prior to granulation: before industrial granulation
[5] = system: ovariectomized rat model of osteopenia; settings: cited from earlier work
[6] = system: MCF-7 cell line (human breast cancer cell line); settings: cited from earlier work
[7] = system: preclinical models of uterine stimulation; settings: cited from earlier work

SMILES: Cc1c(-c2ccc(O)cc2)n(Cc2ccc(OCCN3CCCCCC3)cc2)c2ccc(O)cc12 [Form A, 1-[4-(2-azepan-1-yl-ethoxy)-benzyl]-2-(4-hydroxy-phenyl)-3-methyl-1H-indol-5-ol acetic acid]
conversion of Form A to Form B [1]: can easily convert to Form B
solubility [2]: higher solubility
bioavailability [3]: better bioavailability

SMILES: Cc1c(-c2ccc(O)cc2)n(Cc2ccc(OCCN3CCCCCC3)cc2)c2ccc(O)cc12 [bazedoxifene acetate, 1-[4-(2-azepan-1-yl-ethoxy)-benzyl]-2-(4-hydroxy-phenyl)-3-methyl-1H-indol-5-ol acetic acid]
effect in preventing bone loss and reducing cholesterol [5]: estrogen agonist-like effect
estrogen antagonist behaviour [6]: behaves as an estrogen antagonist
stimulation of uterine response [7]: little or no stimulation of uterine response

Next, values leading:

% Form B after granulation ([4]; listed as 8.4): 0.2%
% Form B prior to granulation ([4]; listed as 8.4): 0.3%
SMILES: Cc1c(-c2ccc(O)cc2)n(Cc2ccc(OCCN3CCCCCC3)cc2)c2ccc(O)cc12 [batch 8.4]

% Form B after granulation ([4]; listed as 8.5): 0.6%
% Form B prior to granulation ([4]; listed as 8.5): 0.5%
SMILES: Cc1c(-c2ccc(O)cc2)n(Cc2ccc(OCCN3CCCCCC3)cc2)c2ccc(O)cc12 [batch 8.5]

% Form B after granulation ([4]; listed as 8.6): 0.1%
SMILES: Cc1c(-c2ccc(O)cc2)n(Cc2ccc(OCCN3CCCCCC3)cc2)c2ccc(O)cc12 [batch 8.6]

% Form B after granulation ([4]; listed as 8.7): 0.2%
% Form B prior to granulation ([4]; listed as 8.7): 0.3%
SMILES: Cc1c(-c2ccc(O)cc2)n(Cc2ccc(OCCN3CCCCCC3)cc2)c2ccc(O)cc12 [batch 8.7]
